What was measured:
Format in all cases: cell-based
NCI/ADR-RES = assay: In vitro cytotoxicity, NCI screen: NCI/ADR-RES (Ovarian); conditions: Homo sapiens, Ovarian panel, NCI protocol, read-out: GI50 values (μM conc.)
Description: (§1) The in vitro anticancer activity studies for these amidobenzothiazoles were carried out at the National Cancer Institute, Maryland, USA.
(§2) The amidobenzothiazoles have been tested against sixty human tumor cell lines derived from nine cancer types (leukemia cancer cell line, non-small cell lung cancer cell line, colon cancer cell line, CNS cancer cell line, melanoma cancer cell line, ovarian cancer cell line, renal cancer cell line, prostate cancer cell line and breast cancer cell lines). For these compounds results are expressed in GI50 values of that particular cancer cell at micro molar (μM) concentration as per NCI protocol.

EKVX = assay: In vitro cytotoxicity, NCI screen: EKVX (Non-small cell lung); conditions: Homo sapiens, Non-small cell lung panel, NCI protocol, read-out: GI50 values (μM conc.)
Description: as §1, §2

MDA-MB-468 = assay: In vitro cytotoxicity, NCI screen: MDA-MB-468 (Breast); conditions: Homo sapiens, read-out: GI50 values (μM conc.)
Description: as §1, §2

KM12 = assay: In vitro cytotoxicity, NCI screen: KM12 (Colon); conditions: Homo sapiens; KM12, Colon panel, NCI protocol; read-out: GI50 values (μM conc.)
Description: as §1, §2

BT-549 = assay: In vitro cytotoxicity, NCI screen: BT-549 (Breast); conditions: Homo sapiens, read-out: GI50 values (μM conc.)
Description: as §1, §2

K-562 = assay: In vitro cytotoxicity, NCI screen: K-562 (Leukemia); conditions: Homo sapiens, K562; read-out: GI50 values (μM conc.)
Description: as §1, §2

SK-OV-3 = assay: In vitro cytotoxicity, NCI screen: SK-OV-3 (Ovarian); conditions: Homo sapiens; SK-OV-3, Ovarian panel, NCI protocol; read-out: GI50 values (μM conc.)
Description: as §1, §2

[1] = tested on: leukemia cancer cell lines; assay: In vitro activity against leukemia cancer cell lines (panel range); conditions: Homo sapiens, read-out: GI50 values, range over the listed compounds and the panel
Description: as §1, §2

T-47D = assay: In vitro cytotoxicity, NCI screen: T-47D (Breast); conditions: Homo sapiens, T47D, Breast panel, NCI protocol, read-out: GI50 values (μM conc.)
Description: as §1, §2

UACC-62 = assay: In vitro cytotoxicity, NCI screen: UACC-62 (Melanoma); conditions: Homo sapiens; UACC-62, Melanoma panel, NCI protocol; read-out: GI50 values (μM conc.)
Description: as §1, §2

SNB-75 = assay: In vitro cytotoxicity, NCI screen: SNB-75 (CNS); conditions: Homo sapiens; SNB-75, CNS panel, NCI protocol; read-out: GI50 values (μM conc.)
Description: as §1, §2

HCC-2998 = assay: In vitro cytotoxicity, NCI screen: HCC-2998 (Colon); conditions: Homo sapiens; HCC-2998, Colon panel, NCI protocol; read-out: GI50 values (μM conc.)
Description: as §1, §2

SR = assay: In vitro cytotoxicity, NCI screen: SR (Leukemia); conditions: Homo sapiens, Leukemia panel, NCI protocol, read-out: GI50 values (μM conc.)
Description: as §1, §2

SK-MEL-5 = assay: In vitro cytotoxicity, NCI screen: SK-MEL-5 (Melanoma); conditions: Homo sapiens; SK-MEL-5, Melanoma panel, NCI protocol; read-out: GI50 values (μM conc.)
Description: as §1, §2

SF-268 = assay: In vitro cytotoxicity, NCI screen: SF-268 (CNS); conditions: Homo sapiens, read-out: GI50 values (μM conc.)
Description: as §1, §2

HT29 = assay: In vitro cytotoxicity, NCI screen: HT29 (Colon); conditions: Homo sapiens, HT-29; HT29, Colon panel, NCI protocol; read-out: GI50 values (μM conc.)
Description: as §1, §2

U251 = assay: In vitro cytotoxicity, NCI screen: U251 (CNS); conditions: Homo sapiens, U-251; U251, CNS panel, NCI protocol; read-out: GI50 values (μM conc.)
Description: as §1, §2

OVCAR-4 = assay: In vitro cytotoxicity, NCI screen: OVCAR-4 (Ovarian); conditions: Homo sapiens; OVCAR-4, Ovarian panel, NCI protocol; read-out: GI50 values (μM conc.)
Description: as §1, §2

SNB-19 = assay: In vitro cytotoxicity, NCI screen: SNB-19 (CNS); conditions: Homo sapiens; SNB-19, CNS panel, NCI protocol; read-out: GI50 values (μM conc.)
Description: as §1, §2

MALME-3M = assay: In vitro cytotoxicity, NCI screen: MALME-3M (Melanoma); conditions: Homo sapiens, Melanoma panel, NCI protocol, read-out: GI50 values (μM conc.)
Description: as §1, §2

OVCAR-5 = assay: In vitro cytotoxicity, NCI screen: OVCAR-5 (Ovarian); conditions: Homo sapiens; OVCAR-5, Ovarian panel, NCI protocol; read-out: GI50 values (μM conc.)
Description: as §1, §2

OVCAR-3 = assay: In vitro cytotoxicity, NCI screen: OVCAR-3 (Ovarian); conditions: Homo sapiens; OVCAR-3, Ovarian panel, NCI protocol; read-out: GI50 values (μM conc.)
Description: as §1, §2

CCRF-CEM = assay: In vitro cytotoxicity, NCI sixty cell line screen: CCRF-CEM (Leukemia); conditions: Homo sapiens, Leukemia panel, NCI protocol, read-out: GI50 values (μM conc.)
Description: as §1, §2

ACHN = assay: In vitro cytotoxicity, NCI screen: ACHN (Renal); conditions: Homo sapiens, Renal panel, NCI protocol, read-out: GI50 values (μM conc.)
Description: as §1, §2

HCT-15 = assay: In vitro cytotoxicity, NCI screen: HCT-15 (Colon); conditions: Homo sapiens; HCT-15, Colon panel, NCI protocol; read-out: GI50 values (μM conc.)
Description: as §1, §2

OVCAR-8 = assay: In vitro cytotoxicity, NCI screen: OVCAR-8 (Ovarian); conditions: Homo sapiens; OVCAR-8, Ovarian panel, NCI protocol; read-out: GI50 values (μM conc.)
Description: as §1, §2

NCI-H23 = assay: In vitro cytotoxicity, NCI screen: NCI-H23 (Non-small cell lung); conditions: Homo sapiens; NCI-H23, Non-small cell lung panel, NCI protocol; read-out: GI50 values (μM conc.)
Description: as §1, §2

SF-295 = assay: In vitro cytotoxicity, NCI screen: SF-295 (CNS); conditions: Homo sapiens; SF-295, CNS panel, NCI protocol; read-out: GI50 values (μM conc.)
Description: as §1, §2

IGROV1 = assay: In vitro cytotoxicity, NCI screen: IGROV1 (Ovarian); conditions: Homo sapiens, IGROV-1; IGROV1, Ovarian panel, NCI protocol; read-out: GI50 values (μM conc.)
Description: as §1, §2

HOP-62 = assay: In vitro cytotoxicity, NCI screen: HOP-62 (Non-small cell lung); conditions: Homo sapiens; HOP-62, Non-small cell lung panel, NCI protocol; read-out: GI50 values (μM conc.)
Description: as §1, §2

NCI-H226 = assay: In vitro cytotoxicity, NCI screen: NCI-H226 (Non-small cell lung); conditions: Homo sapiens; NCI-H226, Non-small cell lung panel, NCI protocol; read-out: GI50 values (μM conc.)
Description: as §1, §2

COLO-205 = assay: In vitro cytotoxicity, NCI screen: COLO-205 (Colon); conditions: Homo sapiens; COLO-205, Colon panel, NCI protocol; read-out: GI50 values (μM conc.)
Description: as §1, §2

Row | SMILES | GI50 (NCI/ADR-RES) [µM] | GI50 (EKVX) [µM] | GI50 (MDA-MB-468) [µM] | GI50 (KM12) [µM] | GI50 (BT-549) [µM] | GI50 (K-562) [µM] | GI50 (SK-OV-3) [µM] | GI50 [1] [µM] | GI50 (T-47D) [µM] | GI50 (UACC-62) [µM] | GI50 (SNB-75) [µM] | GI50 (HCC-2998) [µM] | GI50 (SR) [µM] | GI50 (SK-MEL-5) [µM] | GI50 (SF-268) [µM] | GI50 (HT29) [µM] | GI50 (U251) [µM] | GI50 (OVCAR-4) [µM] | GI50 (SNB-19) [µM] | GI50 (MALME-3M) [µM] | further results
1 | COc1ccc(/C=C\c2cc(OC)c(OC)c(OC)c2)cc1OCC(=O)Nc1nc2ccc(C(F)(F)F)cc2s1 [Compound 8i, N1-(6-(trifluoromethyl)-1,3-benzothiazol-2-yl)-2-{2-methoxy-5-[(Z)-2-(3,4,5-trimethoxyphenyl)-1-ethenyl]phenoxy}acetamide] | 2.12 | 6.25 | 2.16 | 3.14 | 5.23 | 3.3 | 3.29 | 0.037 to 29.9 | 4.79 | 3.9 | 1.58 | 4.23 | 3.35 | 2.84 | 3.85 | 14.9 | 3.67 | 4.66 | 5.03 | > 100 | GI50 (OVCAR-5): 5.98 µM; GI50 (OVCAR-3): 2.11 µM; GI50 (CCRF-CEM): 4.27 µM; GI50 (ACHN): 4.82 µM; GI50 (HCT-15): 3.24 µM; GI50 (OVCAR-8): 3.86 µM; GI50 (NCI-H23): 3.9 µM; GI50 (SF-295): 3.36 µM; GI50 (IGROV1): 4.48 µM; GI50 (HOP-62): 5.22 µM; GI50 (NCI-H226): 3.17 µM; GI50 (COLO-205): 17.1 µM
2 | COc1ccc(/C=C/C(=O)c2cc(OC)c(OC)c(OC)c2)cc1OCC(=O)Nc1nc2ccc(OC(F)(F)F)cc2s1 [Compound 9j, N1-(6-(trifluoromethoxy)-1,3-benzothiazol-2-yl)-2-{2-methoxy-5-[(E)-3-oxo-3-(3,4,5-trimethoxyphenyl)-1-propenyl]phenoxy}acetamide] | 0.49 | 5.11 | 3.52 | 1.51 | 2.71 | 0.43 | 2.16 | 0.037 to 29.9 | 3.08 | 9.52 | 0.34 | 6.18 | 0.39 | 2.03 | 1.2 | 3.66 | 0.7 | 2.07 | 1.58 | 2.69 | GI50 (OVCAR-5): 4.76 µM; GI50 (OVCAR-3): 1.52 µM; GI50 (CCRF-CEM): 2.5 µM; GI50 (ACHN): 1.62 µM; GI50 (HCT-15): 0.4 µM; GI50 (OVCAR-8): 1.54 µM; GI50 (NCI-H23): 2.15 µM; GI50 (SF-295): 2.21 µM; GI50 (IGROV1): 2.54 µM; GI50 (HOP-62): 2.12 µM; GI50 (NCI-H226): 3.35 µM; GI50 (COLO-205): 6.37 µM

— patent US9102638B2, “Amidobenzothiazoles and process for the preparation thereof” (COUNCIL OF SCIENTIFIC & INDUSTRIAL RESEARCH, priority 2011, dated 2015)
